Experimental data as given in patent US20130065910A1, “ORAL MECLIZINE AQUEOUS FORMULATIONS WITH TASTE FLAVORING AGENT” (COMPREHENSIVE DRUG ENTERPRISES LTD., priority 2010, published 2013).
Structures can show the parent of a compound that is named as a salt.

Columns and labels:
[1] = up to 225 mg/day for 9.5 years; cited from earlier work
[2] = system: histamine; details: in vivo; cited from earlier work
[3] = system: isolated guinea pig ileum; details: cited from earlier work
[4] = system: histamine; details: guinea pigs; cited from earlier work
[5] = system: acetylcholine; details: in vivo; cited from earlier work
[6] = cited from earlier work
[7] = Solubility of meclizine hydrochloride in Solutol HS15 and HP-β-CD solutions; format: physicochemical; details: aqueous with cosolvent or surfactant or cyclodextrin, thermodynamic from solid, room temperature (22° C.)
Protocol: The ability of Solutol® HS15 and HP-β-CD to enhance the aqueous solubility of meclizine hydrochloride is determined in this example.
Aqueous solutions containing 0.1, 0.5, 1, 2.5, 5, 10, 15, 20, and 25% (w/v) (w/v) of Solutol® HS15 or HP-β-CD solubilizers were prepared. 10 mg samples of meclizine hydrochloride were added to a 4 ml portion of each of the above solutions. The samples were left to be stirred overnight at room temperature (22° C.). If during this time all drug dissolved, additional meclizine was added until a suspension was formed (i.e. saturated drug solution formed). After further stirring for up to 24 hours, suspensions were centrifuged at 14000 rpm for 10 minutes, and then the supernatants were filtered (0.45 μm filter, Sartorius, Germany) to obtain saturated meclizine hydrochloride solutions. The filtrate samples were diluted and detected by HPLC and the concentration of meclizine hydrochloride in the samples was calculated with the calibration curve made from standard solutions of meclizine hydrochloride.

In the case of `Cc1cccc(CN2CCN(C(c3ccccc3)c3ccc(Cl)cc3)CC2)c1` (stereo not shown) [meclizine, 1-[(4-chlorophenyl)-phenyl-methyl]-4-[(3-methylphenyl)methyl]piperazine], the “tolerability (adverse effects)” value [1] is given as “no adverse effect reported”, the “blocking the vasodepressor response to histamine” value [2] is given as “marked effect” and the “inhibiting the spasmogenic action of histamine” value [3] is given as “relatively weak”. For the same molecule, the “protective activity against nebulized histamine and lethal doses of intravenously injected histamine” value [4] was “marked protective activity” and the “blocking action against acetylcholine” value [5] was “slight blocking action”.

For `Cc1cccc(CN2CCN(C(c3ccccc3)c3ccc(Cl)cc3)CC2)c1` (stereo not shown) [meclizine hydrochloride], the solubility in alcohol ([6]; alcohol) is listed as “slightly soluble”, the solubility in water ([6]; water) is listed as “practically insoluble” and the solubility ([7]; 0.1% (w/v) HP-β-CD aqueous solution) is listed as 3.4 mg/mL. It also gave a solubility ([7]; 0.1% (w/v) Solutol HS15 aqueous solution) of 2.6 mg/mL, a solubility ([7]; 0.5% (w/v) HP-β-CD aqueous solution) of 6.1 mg/mL and a solubility ([7]; 0.5% (w/v) Solutol HS15 aqueous solution) of 3.2 mg/mL. For the same molecule, the solubility ([7]; 1% (w/v) HP-β-CD aqueous solution) was 7.1 mg/mL, the solubility ([7]; 1% (w/v) Solutol HS15 aqueous solution) was 4.3 mg/mL and the solubility ([7]; 2.5% (w/v) HP-β-CD aqueous solution) was 9.9 mg/mL. The solubility ([7]; 2.5% (w/v) Solutol HS15 aqueous solution) was 5.2 mg/mL, the solubility ([7]; 5% (w/v) HP-β-CD aqueous solution) was 14.3 mg/mL and the solubility ([7]; 5% (w/v) Solutol HS15 aqueous solution) was 9.2 mg/mL. The solubility ([7]; 10% (w/v) HP-β-CD aqueous solution) was 24.6 mg/mL, the solubility ([7]; 10% (w/v) Solutol HS15 aqueous solution) was 15.4 mg/mL and the solubility ([7]; 15% (w/v) HP-β-CD aqueous solution) was 30.5 mg/mL. The solubility ([7]; 15% (w/v) Solutol HS15 aqueous solution) was 22.8 mg/mL, the solubility ([7]; 20% (w/v) HP-β-CD aqueous solution) was 34.3 mg/mL and the solubility ([7]; 20% (w/v) Solutol HS15 aqueous solution) was 36.8 mg/mL. The solubility ([7]; 25% (w/v) HP-β-CD aqueous solution) was 37.9 mg/mL and the solubility ([7]; 25% (w/v) Solutol HS15 aqueous solution) was 40.1 mg/mL.
